Reference: article PMC10350924, “Design, Synthesis, and Pharmacological Characterization of a Potent Soluble Epoxide Hydrolase Inhibitor for the Treatment of Acute Pancreatitis” (Journal of Medicinal Chemistry, 2023)

Legend:
Human recombinant sEH = target: T1, Human recombinant sEH (Homo sapiens, UniProt P34913); assay: Cell-free sEH activity (PHOME fluorescence); type: biochemical; conditions: human isolated sEH
T1 construct: made in house; host or cells: Sf9 insect cells (recombinant baculovirus)
T1 sequence (P34913 1-555): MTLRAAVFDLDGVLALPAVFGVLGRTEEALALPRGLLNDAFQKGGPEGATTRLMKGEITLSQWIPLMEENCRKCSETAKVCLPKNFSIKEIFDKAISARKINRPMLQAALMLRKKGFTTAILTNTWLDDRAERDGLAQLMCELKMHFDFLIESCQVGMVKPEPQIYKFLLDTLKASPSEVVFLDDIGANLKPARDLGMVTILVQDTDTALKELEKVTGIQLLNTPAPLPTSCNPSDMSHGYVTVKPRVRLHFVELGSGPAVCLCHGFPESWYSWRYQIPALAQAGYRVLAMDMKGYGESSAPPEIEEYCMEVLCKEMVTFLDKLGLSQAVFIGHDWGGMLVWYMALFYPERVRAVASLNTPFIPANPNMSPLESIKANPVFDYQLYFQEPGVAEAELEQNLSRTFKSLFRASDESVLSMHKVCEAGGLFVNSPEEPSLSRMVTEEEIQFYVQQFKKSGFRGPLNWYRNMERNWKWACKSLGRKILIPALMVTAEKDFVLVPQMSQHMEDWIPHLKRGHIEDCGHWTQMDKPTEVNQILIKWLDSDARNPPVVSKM
Experimental: Human recombinant sEH was expressed in Sf9 insect cells and purified by affinity chromatography. […] Elution with 4-fluorochalcone oxide in PBS pH 7.4 with 1 mM dithiothreitol and 1 mM EDTA yielded sEH, which was dialyzed and concentrated. Purified sEH (60 ng) in 25 mM Tris HCl pH 7 with 0.1 mg/mL bovine serum albumin (BSA) was preincubated with the vehicle (DMSO) or test compounds for 1 min at room temperature. The sEH substrate PHOME (20 μM, Cayman Chemicals) was added to start the enzymatic reaction, which was stopped after 60 min in the dark by the addition of ZnSO4 (200 mM).

5-LOX [1] = target: T2, 5-LOX (Homo sapiens, UniProt P09917); assay: Cell-free 5-LOX activity assay; type: biochemical; set-up: made in house; host or cells: Escherichia coli Bl21 (DE3); conditions: for IC50: human isolated 5-LOX; for inhibition of 5-LOX activity, times lower than 6: isolated 5-LOX, relative to compound 6
T2 sequence (P09917 1-674): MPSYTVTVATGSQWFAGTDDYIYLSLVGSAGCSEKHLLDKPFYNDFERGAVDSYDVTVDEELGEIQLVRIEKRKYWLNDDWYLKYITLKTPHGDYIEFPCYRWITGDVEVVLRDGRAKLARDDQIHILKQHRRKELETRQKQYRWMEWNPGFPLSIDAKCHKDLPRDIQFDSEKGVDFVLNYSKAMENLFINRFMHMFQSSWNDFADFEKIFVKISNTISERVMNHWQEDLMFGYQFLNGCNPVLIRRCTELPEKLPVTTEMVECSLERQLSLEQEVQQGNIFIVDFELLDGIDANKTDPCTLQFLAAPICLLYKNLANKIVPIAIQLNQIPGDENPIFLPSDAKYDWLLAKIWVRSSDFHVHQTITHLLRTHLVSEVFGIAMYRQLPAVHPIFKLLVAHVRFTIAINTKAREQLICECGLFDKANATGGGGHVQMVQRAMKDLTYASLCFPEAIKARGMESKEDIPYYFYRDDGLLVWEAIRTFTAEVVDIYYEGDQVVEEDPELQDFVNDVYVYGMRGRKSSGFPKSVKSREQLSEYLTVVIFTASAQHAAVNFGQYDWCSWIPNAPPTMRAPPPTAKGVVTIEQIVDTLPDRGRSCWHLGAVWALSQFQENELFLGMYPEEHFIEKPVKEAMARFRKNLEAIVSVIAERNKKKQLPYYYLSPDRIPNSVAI
Experimental: Human recombinant 5-LOX was expressed in Escherichia coli Bl21 (DE3) cells that were transformed with the plasmid pT3-5LO (wt 5-LOX) and purified on an adenosine triphosphate (ATP)-agarose column by affinity chromatography.[40],[41] In a first step, E. coli was lysed in 50 mM triethanolamine/HCl pH 8.0 with ethylenediamine tetraacetic acid (EDTA) (5 mM), soybean trypsin inhibitor (60 μg/mL), phenylmethanesulfonyl fluoride (1 mM), dithiothreitol (1 mM), and lysozyme (1 mg/mL) and sonicated 3 times for 15 s. The homogenate was centrifuged at 40,000g for 20 min at 4 °C. The supernatant was transferred to an ATP-agarose column (Sigma-Aldrich, Deisenhofen, Germany), which was sequentially washed with phosphate-buffered saline (PBS) pH 7.4, 1 mM EDTA, 50 mM phosphate buffer pH 7.4, 0.5 M NaCl, 1 mM EDTA, and finally 50 mM phosphate buffer pH 7.4 plus 1 mM EDTA. The enzyme was eluted with 50 mM phosphate buffer pH 7.4, 1 mM EDTA, and 20 mM ATP.
5-LOX product formation was started by the addition of 20 μM arachidonic acid (Sigma-Aldrich) and CaCl2 (2 mM) and stopped by the addition of an equal volume of ice-cold methanol containing PGB1 (200 ng) as internal standard after 10 min at 37 °C.

5-LOX [2] = target: T2, 5-LOX; assay: 5-LOX product formation in human activated PMNL (A23187); type: cell-based; set-up: Freshly isolated PMNL (5 × 10^6) suspended in PBS pH 7.4 with 1 mg/mL glucose were preincubated with the test compounds; endogenous in cells; host or cells: human PMNL from donor blood; remaining activity: dose or concentration left out as unconfirmed; conditions: for remaining activity at 10 µM / IC50: human activated PMNL; for remaining activity at 10 µM: read-out: 5-LOX residual activity in PMNL (%) at 10 μM; for remaining activity: PMNL, read-out: 5-LO residual activity in PMNL (%)
Experimental: Human PMNL were freshly isolated from leukocyte concentrates that were obtained from the Institute for Transfusion Medicine of the University Hospital Jena (Germany). […] These volunteers regularly donated blood (every 8–12 weeks) and were physically inspected by a clinician. […] Leukocytes were concentrated by centrifugation (4000g/20 min/20 °C) of freshly withdrawn blood. […] PMNL were obtained from the cell pellet. […] The reaction was stopped with an equal volume of methanol containing PGB1 (200 ng) as internal standard. Major 5-LOX products (all-trans isomers of LTB and 5-HETE, and additionally LTB4) were extracted and analyzed by RP-HPLC as described for the determination of cell-free 5-LOX activity.

| Structure (SMILES) | IC50 (Human recombinant sEH) | IC50 (5-LOX [1]) | remaining activity at 10 µM (5-LOX [2]) | remaining activity (5-LOX [2]) | IC50 (5-LOX [2]) | inhibition of 5-LOX activity, times lower than 6 (5-LOX [1]) |
| --- | --- | --- | --- | --- | --- | --- |
| O=C(NCC12C[C@H]3C[C@@H](C1)C[C@@H](C2)C3)Nc1ccc2c(ccn2Cc2ccc(C(=O)O)cc2)c1 [Compound 37, 4-((5-(3-(((3R,5R,7R)-Adamantan-1-yl)methyl)ureido)-1H-indol-1-yl)methyl)benzoic Acid] | 15.1 ± 7.7 nM | > 1000 nM | 2.1 ± 1.1% | 2.1 ± 1.1% | 4400 ± 420 nM |  |
| O=C(Nc1ccc2c(c1)CCN2Cc1ccc(F)cc1)C12C[C@H]3C[C@@H](C1)C[C@@H](C2)C3 [Compound 3, (3R,5R,7R)-N-(1-(4-Fluorobenzyl)indolin-5-yl)adamantane-1-carboxamide] | 285 ± 31.2 nM | 74 ± 18 nM | 53.2 ± 9.9% | 53.2 ± 9.9% |  |  |
| O=C(NCC12C[C@H]3C[C@@H](C1)C[C@@H](C2)C3)Nc1ccc2c(c1)c1ccccc1n2Cc1ccc(F)cc1 [Compound 48, 1-(((3R,5R,7R)-Adamantan-1-yl)methyl)-3-(9-(4-fluorobenzyl)-9H-carbazol-3-yl)urea] | 20 ± 3.8 nM | > 1000 nM | 92.6 ± 4% | 92.6 ± 4% |  |  |
| COC(=O)c1ccc(Cn2ccc3cc(NC(=O)NCC45C[C@H]6C[C@@H](C4)C[C@@H](C5)C6)ccc32)cc1 [Compound 29, Methyl 4-((5-(3-(((3R,5R,7R)-Adamantan-1-yl)methyl)ureido)-1H-indol-1-yl)methyl)benzoate] | 11.4 ± 3.6 nM | > 1000 nM | 65.1 ± 9.4% | 65.1 ± 9.4% |  |  |
| CC1(C)C2CC[C@@]1(CS(=O)(=O)Nc1ccc3c(c1)CCN3Cc1ccc(F)cc1)C(=O)C2 [Compound 4, 1-((1S)-7,7-Dimethyl-2-oxobicyclo[2.2.1]heptan-1-yl)-N-(1-(4-fluorobenzyl)indolin-5-yl)methanesulfonamide] | 1800 ± 460 nM | 171 ± 66 nM | 2.5 ± 2.5% | 2.5 ± 2.5% | 2560 nM | around 2.5 times |
| NCc1ccc(Cn2ccc3cc(NC(=O)NCC45C[C@H]6C[C@@H](C4)C[C@@H](C5)C6)ccc32)cc1 [Compound 42, 1-(((3R,5R,7R)-Adamantan-1-yl)methyl)-3-(1-(4-(aminomethyl)benzyl)-1H-indol-5-yl)urea] | 14.9 ± 4.6 nM | > 1000 nM | 6.6 ± 4% | 6.6 ± 4% | 6190 ± 2410 nM |  |
| CN1CCCN(CCNC(=O)Nc2ccc3c(c2)CCN3Cc2ccc(F)cc2)CC1 [Compound 8, 1-(1-(4-Fluorobenzyl)indolin-5-yl)-3-(2-(4-methyl-1,4-diazepan-1-yl)ethyl)urea] | > 10000 nM | > 1000 nM | 71.1 ± 6.6% | 71.1 ± 6.6% |  |  |
| O=C(NCC12C[C@H]3C[C@@H](C1)C[C@@H](C2)C3)Nc1ccc2c(c1)CCN2Cc1ccc(C(=O)O)cc1 [Compound 14, 4-((5-(3-(((3R,5R,7R)-Adamantan-1-yl)methyl)ureido)indolin-1-yl)methyl)benzoic Acid] | 24.1 ± 4.1 nM | > 1000 nM | 57.7 ± 9.6% | 57.7 ± 9.6% |  |  |
| NCCCn1ccc2cc(NC(=O)NCC34CC5CC(CC(C5)C3)C4)ccc21 [Compound 39, 1-(((3R,5R,7R)-Adamantan-1-yl)methyl)-3-(1-(3-aminopropyl)-1H-indol-5-yl)urea] | 27.2 ± 11.8 nM | > 1000 nM | 51.8 ± 13% | 51.8 ± 13% |  |  |
| O=C(Nc1ccc2c(ccn2Cc2ccc(F)cc2)c1)NC12C[C@H]3C[C@@H](C1)C[C@@H](C2)C3 [Compound 33, 1-((3S,5S,7S)-Adamantan-1-yl)-3-(1-(4-fluorobenzyl)-1H-indol-5-yl)urea] | 13.4 ± 3.1 nM | > 1000 nM |  | 97.8 ± 0.3% |  |  |
| COC(=O)CCCn1ccc2cc(NC(=O)NCC34C[C@H]5C[C@@H](C3)C[C@@H](C4)C5)ccc21 [Compound 32, Methyl 4-(5-(3-(((3R,5R,7R)-Adamantan-1-yl)methyl)ureido)-1H-indol-1-yl)butanoate] | 21.3 ± 11.9 nM | > 1000 nM | 30.1 ± 4.8% | 30.1 ± 4.8% | 6830 ± 840 nM |  |
| O=C(NCC12C[C@H]3C[C@@H](C1)C[C@@H](C2)C3)Nc1ccc2c(ccn2-c2ccc(F)cc2)c1 [Compound 45, 1-(((3R,5R,7R)-Adamantan-1-yl)methyl)-3-(1-(4-fluorophenyl)-1H-indol-5-yl)urea] | 4.4 ± 0.5 nM | > 1000 nM | 80.9 ± 1.7% | 80.9 ± 1.7% |  |  |
| O=C(NCc1cccc2ccccc12)Nc1ccc2c(c1)CCN2Cc1ccc(F)cc1 [Compound 7, 1-(1-(4-Fluorobenzyl)indolin-5-yl)-3-(naphthalen-1-ylmethyl)urea] | 36.1 ± 7.5 nM | 148 ± 28 nM | 56.3 ± 5.1% | 56.3 ± 5.1% |  | ~2 times |
| Fc1ccc(CN2CCc3cc(NC(=S)NCC45C[C@H]6C[C@@H](C4)C[C@@H](C5)C6)ccc32)cc1 [Compound 10, 1-(((3R,5R,7R)-Adamantan-1-yl)methyl)-3-(1-(4-fluorobenzyl)indolin-5-yl)thiourea] | 288 ± 220 nM | > 1000 nM |  |  |  |  |
| O=C(O)CCCn1ccc2cc(NC(=O)NCC34C[C@H]5C[C@@H](C3)C[C@@H](C4)C5)ccc21 [Compound 38, 4-(5-(3-(((3R,5R,7R)-Adamantan-1-yl)methyl)ureido)-1H-indol-1-yl)butanoic Acid] | 53.3 ± 15.9 nM | > 1000 nM | 41.2 ± 7.8% | 41.2 ± 7.8% | 8150 ± 1860 nM |  |
| O=C(NCC12C[C@H]3C[C@@H](C1)C[C@@H](C2)C3)Nc1ccc2c(c1)CCN2Cc1ccc(F)cc1 [Compound 5, 1-(((3R,5R,7R)-Adamantan-1-yl)methyl)-3-(1-(4-fluorobenzyl)indolin-5-yl)urea] | 11.1 ± 6 nM | 78 ± 53 nM | 79.7 ± 2.8% | 73.7 ± 2.8% |  |  |
